# Measurements as given in ChEMBL document CHEMBL6120994, “Unravelling the potential of natural chelating agents in the control of Staphylococcus aureus and Pseudomonas aeruginosa biofilms” (Eur J Med Chem, 2025).
# Calls of active or inactive are those of the source. The calls are words filed in the database; no cut-off is given here.
# Tests used:
# Pseudomonas aeruginosa [1] = test: Antibiotic adjuvant activity against Pseudomonas aeruginosa ATCC 10145 assessed as potentiation of ciprofloxacin-induced antibiofilm activity by measuring reduction in metabolic activity of biofilm cells at 500 ug/ml in presence of ciprofloxacin by resazurin staining based fluorescence analysis; assay type: functional, organism-based; settings: dose 500.0 µg/ml
# Staphylococcus aureus [2] = test: Inhibition of virulence production in pre-established 24 hr-old Staphylococcus aureus CECT 976 biofilms assessed as diameter of siderophores halo at 1XMTC measured after 48 hrs (reference value: 11.5 to 11.8 mm); assay type: functional
# Pseudomonas aeruginosa [3] = test: Antibacterial activity against Pseudomonas aeruginosa ATCC 10145 assessed as inhibition of bacterial growth incubated for 24 hrs by broth microdilution method; assay type: functional
# Pseudomonas aeruginosa [4] = test: Antibiofilm activity against preestablished 24 hr-old Pseudomonas aeruginosa ATCC 10145 assessed as biomass removal at 1000 to 10000 ug/ml measured after 24 hrs by crystal violet staining method; assay type: functional; settings: dose 1000-10000 µg/ml, at 1000 to 10000 µg/mL
# Staphylococcus aureus [5] = test: Antibacterial activity against Staphylococcus aureus CECT 976 assessed as inhibition of bacterial growth incubated for 24 hrs by broth microdilution method; assay type: functional
# Staphylococcus aureus [6] = test: Inhibition of virulence production in pre-established 24 hr-old Staphylococcus aureus CECT 976 biofilms assessed as diameter of protease halo at 10XMTC measured after 72 hrs (reference value: 12.5 to 13.3 mm); assay type: functional
# Pseudomonas aeruginosa [7] = test: Bactericidal activity against Pseudomonas aeruginosa ATCC 10145 assessed as bacterial killing incubated in MHB for 24 hrs and measured following culturing on agar plate for 24 hrs; assay type: functional; settings: time 48 hrs
# Pseudomonas aeruginosa [8] = test: Antibacterial activity against Pseudomonas aeruginosa ATCC 10145 assessed as inhibition of bacterial growth by measuring inhibition zone diameter at 100 ug/ml incubated for 24 hrs in presence of tetracycline by disc diffusion method (reference value: 2 mm); assay type: functional; settings: read-out: DIZ
# Staphylococcus aureus [9] = test: Inhibition of virulence production in pre-established 24 hr-old Staphylococcus aureus CECT 976 biofilms assessed as diameter of gelatinases halo at 10XMTC measured after 48 hrs (reference value: 10.8 to 11 mm); assay type: functional
# Staphylococcus aureus [10] = test: Inhibition of virulence production in Staphylococcus aureus CECT 976 biofilms assessed as diameter of protease halo at 1/2XMTC measured after 72 hrs in presence of 1/2XMIC tobramycin (reference value: 12.5 to 13.3 mm); assay type: functional
# Staphylococcus aureus [11] = test: Inhibition of virulence production in pre-established 24 hr-old Staphylococcus aureus CECT 976 biofilms assessed as diameter of protease halo at 10XMTC measured after 72 hrs in presence of 1/2XMIC tobramycin (reference value: 11.8 to 12.3 mm); assay type: functional
# Staphylococcus aureus [12] = test: Inhibition of virulence production in Staphylococcus aureus CECT 976 biofilms assessed as diameter of siderophores halo at 1/2XMTC measured after 48 hrs in presence of 1/4XMIC tobramycin (reference value: 10.5 +/-0.6 mm); assay type: functional
# Staphylococcus aureus [13] = test: Antibacterial activity against Staphylococcus aureus CECT 976 assessed as inhibition of bacterial growth by measuring inhibition zone diameter at 1000 ug/ml incubated for 24 hrs in presence of methicillin by disc diffusion method (reference value: 19.5 +/- 1.29 mm); assay type: functional; settings: read-out: DIZ
# Pseudomonas aeruginosa [14] = test: Antibiofilm activity against preestablished 24 hr-old Pseudomonas aeruginosa ATCC 10145 assessed as reduction in metabolic activity of biofilm cells at 10XMTC by resazurin staining based fluorescence analysis; assay type: functional
# Staphylococcus aureus [15] = test: Inhibition of virulence production in Staphylococcus aureus CECT 976 biofilms assessed as diameter of protease halo at 1/2XMTC measured after 72 hrs in presence of 1/4XMIC tobramycin (reference value: 11.5 to 12.3 mm); assay type: functional
# Staphylococcus aureus [16] = test: Inhibition of virulence production in pre-established 24 hr-old Staphylococcus aureus CECT 976 biofilms assessed as diameter of siderophores halo at 10XMTC measured after 48 hrs in presence of 1XMIC tobramycin (reference value: 11.3 +/-0.5 mm); assay type: functional
# Staphylococcus aureus [17] = test: Inhibition of virulence production in Staphylococcus aureus CECT 976 biofilms assessed as diameter of lipases halo at 1/2XMTC measured after 48 hrs in presence of 1/4XMIC tobramycin (reference value: 12.3 to 13.5 mm); assay type: functional
# Staphylococcus aureus [18] = test: Inhibition of virulence production in Staphylococcus aureus CECT 976 biofilms assessed as diameter of gelatinases halo at 1XMTC measured after 48 hrs (reference value: 11.5 to 11.8 mm); assay type: functional
# Cell membrane [19] = test: Disruption of membrane integrity in pre-established 24 hr-old Staphylococcus aureus CECT 976 biofilm at 10XMTC measured after 24 hrs by SYTO9/PI dye based epifluorescence microscopy; assay type: subcellular
# Pseudomonas aeruginosa [20] = test: Antibiofilm activity against preestablished 24 hr-old Pseudomonas aeruginosa ATCC 10145 assessed as reduction in metabolic activity of biofilm cells at MTC by resazurin staining based fluorescence analysis; assay type: functional, organism-based
# Staphylococcus aureus [21] = test: Inhibition of virulence production in pre-established 24 hr-old Staphylococcus aureus CECT 976 biofilms assessed as diameter of lipases halo at 1XMTC measured after 48 hrs (reference value: 11.5 to 11.8 mm); assay type: functional
# Staphylococcus aureus [22] = test: Inhibition of virulence production in Staphylococcus aureus CECT 976 biofilms assessed as diameter of protease halo at 1/2XMTC measured after 72 hrs (reference value: 11.8 to 13.3 mm); assay type: functional
# Staphylococcus aureus [23] = test: Inhibition of virulence production in Staphylococcus aureus CECT 976 biofilms assessed as diameter of lipases halo at 1/2XMTC measured after 48 hrs in presence of 1/8XMIC tobramycin (reference value: 12.5 to 12.8 mm); assay type: functional
# Staphylococcus aureus [24] = test: Inhibition of virulence production in Staphylococcus aureus CECT 976 biofilms assessed as diameter of siderophores halo at 1/2XMTC measured after 48 hrs (reference value: 12 mm); assay type: functional
# Staphylococcus aureus [25] = test: Inhibition of virulence production in pre-established 24 hr-old Staphylococcus aureus CECT 976 biofilms assessed as diameter of gelatinases halo at 1XMTC measured after 48 hrs (reference value: 10 mm); assay type: functional
# Cell membrane [26] = test: Disruption of membrane integrity in pre-established 24 hr-old Staphylococcus aureus CECT 976 assessed as reduction in number of cells at 10XMTC measured after 24 hrs in presence of 1XMIC tobramycin by SYTO9/PI dye based epifluorescence microscopy
# Staphylococcus aureus [27] = test: Inhibition of virulence production in pre-established 24 hr-old Staphylococcus aureus CECT 976 biofilms assessed as diameter of siderophores halo at 10XMTC measured after 48 hrs (reference value: 11.5 to 11.8 mm); assay type: functional
# Staphylococcus aureus [28] = test: Inhibition of virulence production in Staphylococcus aureus CECT 976 biofilms assessed as diameter of gelatinases halo at 1/2XMTC measured after 48 hrs (reference value: 10.8 to 11.5 mm); assay type: functional
# Staphylococcus aureus [29] = test: Inhibition of virulence production in Staphylococcus aureus CECT 976 biofilms assessed as diameter of siderophores halo at 1XMTC measured after 48 hrs (reference value: 12 mm); assay type: functional
Compound,Activity (Pseudomonas aeruginosa [1]),Activity (Staphylococcus aureus [2]) [mm],MIC (Pseudomonas aeruginosa [3]) [µg/mL],inhibition (INH) (Pseudomonas aeruginosa [4]) [%],MIC (Staphylococcus aureus [5]) [µg/mL],Activity (Staphylococcus aureus [6]) [mm],MBC (Pseudomonas aeruginosa [7]) [µg/mL],zone of inhibition at 100 µg/mL (Pseudomonas aeruginosa [8]) [mm],Activity (Staphylococcus aureus [9]) [mm],Activity (Staphylococcus aureus [10]) [mm],Activity (Staphylococcus aureus [11]) [mm],Activity (Staphylococcus aureus [12]) [mm],zone of inhibition at 1000 µg/mL (Staphylococcus aureus [13]) [mm],inhibition (INH) (Pseudomonas aeruginosa [14]) [%],Activity (Staphylococcus aureus [15]) [mm],Activity (Staphylococcus aureus [16]) [mm],Activity (Staphylococcus aureus [17]) [mm],Activity (Staphylococcus aureus [18]) [mm],Activity (Cell membrane [19]),Activity (Pseudomonas aeruginosa [20]),other results
O=c1cc(CO)occ1O [KOJIC ACID],inactive,10,> 1000,15,> 1000,0,> 1000,5,0,0,0,9.5,16,70,0,10,2,0,inactive,inactive,Activity (Staphylococcus aureus [21]): 2.3 mm; Activity (Staphylococcus aureus [22]): 0 mm; Activity (Staphylococcus aureus [23]): 2.5 mm; Activity (Staphylococcus aureus [24]): 10 mm; Activity (Staphylococcus aureus [25]): 0 mm; Activity (Cell membrane [26]): Active; Activity (Staphylococcus aureus [27]): 9.3 mm; Activity (Staphylococcus aureus [28]): 0 mm; Activity (Staphylococcus aureus [29]): 10 mm
Cc1occc(=O)c1O [MALTOL],inactive,10,> 1000,15,> 1000,0,> 1000,3.5,0,0,0,9.5,15.5,70,0,10.3,2.3,0,inactive,inactive,Activity (Staphylococcus aureus [21]): 2.8 mm; Activity (Staphylococcus aureus [22]): 0 mm; Activity (Staphylococcus aureus [23]): 2 mm; Activity (Staphylococcus aureus [24]): 10 mm; Activity (Staphylococcus aureus [25]): 0 mm; Activity (Cell membrane [26]): Active; Activity (Staphylococcus aureus [27]): 10 mm; Activity (Staphylococcus aureus [28]): 0 mm; Activity (Staphylococcus aureus [29]): 10 mm
